The results in this text go back to patent US12162876B2, “Indazole kinase inhibitor and use thereof” (Tarapeutics Science Inc., priority 2018, dated 2024).

What all share (type): cell-based
In one assay the test system is BaF3. In words: Cell proliferation (CCK-8, 72 h), parental BaF3. As to conditions: Mus musculus, parental BaF3 cells. From the text:
(§1) In this example, human gastrointestinal stromal tumor cell line GIST-T1 (expressing wild-type C-KIT gene) (purchased from Cosmo Bio Co., Ltd. (Japan)), human gastrointestinal stromal tumor cell line GIST-T1-T670I (expressing C-KIT-T670I mutant gene) (constructed by our laboratory with CRISPR technology), mouse […] BaF3 (purchased from ATCC) were used. In addition, in this Example, mouse Tel-cKit-BaF3 (stably expressing C-KIT wild-type kinase), mouse Tel-cKit/T670I-BaF3 (stably expressing cKIT T670I mutant kinase), mouse Tel-PDGFRα-BaF3 (stably expressing PDGFRα kinase), mouse Tel-PDGFRβ-BaF3 (stably expressing PDGFRβ kinase), mouse Tel-VEGFR2-BaF3 (stably expressing VEGFR2 kinase), mouse Tel-FLT3-BaF3 (stably expressing FLT3 kinase) were also used. The above cell lines were all constructed by our laboratory. The construction method was as follows: the human C-KIT, C-KIT T670I, PDGFRα, PDGFRβ, VEGFR2, FLT3 kinase region sequences were amplified by PCR respectively and inserted into MSCV-Puro vector (purchased from Clontech) with N-terminal TEL fragment and/or NPM fragment and/or TPR fragment respectively, which was stably transferred into mouse BaF3 cells by retroviral method, and IL-3 growth factor was removed, and finally the cell lines in which protein was transferred depending on C-KIT, C-KIT/T670I, PDGFRα, PDGFRβ, VEGFR2, FLT3 were obtained. The GIST-T1-T670I (expressing C-KIT-T670I mutant gene) cell line was constructed by our laboratory. The construction method was as follows: the sgRNA targeting near the T670 site of the KIT gene was designed by the CRISPR design tool of the Zhang Feng Laboratory of the Massachusetts Institute of Technology (URL: crispr.mit.edu) and cloned into pSpCas9(BB)-2A-Puro vector (Addgene, USA); the obtained vector and a single-stranded oligonucleotide with T670I mutation near the T670 site were co-transfected into the cells, and after antibiotic selection, they were diluted and cultured in a single cell in a 96-well plate; the T670 site of the cells was sequenced and verified by the Sanger sequencing method.

The next assay has as its system TEL-cKIT-BaF3. In words: Cell proliferation (CCK-8, 72 h), TEL-cKIT-BaF3. As to conditions: Mus musculus, BaF3 expressing wild-type C-KIT kinase.
Description: as §1

In a further assay the test system is TEL-cKIT/T670I-BaF3. Description: Cell proliferation (CCK-8, 72 h), TEL-cKIT/T670I-BaF3. The settings on record: Mus musculus; BaF3 expressing cKIT T670I mutant kinase, 72 h, CCK-8; read-out: GI50 TEL-cKIT/T670I-BaF3.
Description: as §1

The subject of another assay is TEL-FLT3-BaF3. In words: Cell proliferation (CCK-8, 72 h), TEL-FLT3-BaF3. As to conditions: Mus musculus, BaF3 expressing FLT3 kinase.
Description: as §1

For the next assay, the system named is TEL-VEGFR2-BaF3. Description: Cell proliferation (CCK-8, 72 h), TEL-VEGFR2-BaF3. The settings on record: Mus musculus, BaF3 expressing VEGFR2 kinase.
Description: as §1

A further assay deals with TEL-PDGFRα-BaF3. In words: Cell proliferation (CCK-8, 72 h), TEL-PDGFRα-BaF3. As to conditions: Mus musculus, BaF3 expressing PDGFRα kinase.
Description: as §1

Another assay has as its system TEL-PDGFRβ-BaF3. Description: Cell proliferation (CCK-8, 72 h), TEL-PDGFRβ-BaF3. The settings on record: Mus musculus, BaF3 expressing PDGFRβ kinase.
Description: as §1

Some results are limits rather than exact numbers.

For `Cc1nc(NC(=O)C(C)C)sc1-c1ccc2c(/C=C/c3ccccn3)n[nH]c2c1` [Compound 19, (E)-N-(4-methyl-5-(3-(2-(pyridin-2-yl)vinyl)-1H-indazol-6-yl)thiazol-2-yl) isobutanamide], the GI50 with BaF3 worked out at 1580 nM; in the assay on TEL-cKIT-BaF3, 519 nM; in the assay with TEL-cKIT/T670I-BaF3 it was 41 nM; in the assay on TEL-FLT3-BaF3, 4 nM.
The like results for `Cc1nc(NC(=O)CN2CCN(C)CC2)sc1-c1ccc2c(-c3cccnc3)n[nH]c2c1` [Compound 24, N-(4-methyl-5-(3-(pyridin-3-yl)-1H-indazol-6-yl)thiazol-2-yl)-2-(4-methylpiperazin-1-yl)acetamide] were, in that order, 5130 nM, 3210 nM, 114 nM and 12 nM.
The like results for `Cc1nc(NC(=O)CC2CCN(C)CC2)sc1-c1ccc2c(/C=C/c3ccccn3)n[nH]c2c1` [Compound 27, (E)-N-(4-methyl-5-(3-(2-(pyridin-2-yl)vinyl)-1H-indazol-6-yl)thiazol-2-yl)-2-(1-methylpiperidin-4-yl)acetamide] were, in that order, 605 nM, 94 nM, 1 nM and below 1 nM.
Turning to `Cc1nc(NC(=O)Cc2cccc(C(F)(F)F)c2)sc1-c1ccc2c(-c3cccnc3)n[nH]c2c1` [Compound 28, N-(4-methyl-5-(3-(pyridin-3-yl)-1H-indazol-6-yl)thiazol-2-yl)-2-(3-(trifluoromethyl)phenyl)acetamide], the GI50 is 2490 nM with BaF3, 48 nM in the assay on TEL-cKIT-BaF3, 7 nM in the assay on TEL-cKIT/T670I-BaF3 and 0.1 nM in the assay with TEL-FLT3-BaF3.
On the same counts, the results for `Cc1nc(NC(=O)C(O)CC(C)C)sc1-c1ccc2c(/C=C/c3ccccn3)n[nH]c2c1` (stereo not shown) [Compound 22, (E)-2-hydroxyl-4-methyl-N-(4-methyl-5-(3-(2-(pyridin-2-yl)vinyl)-1H-indazol-6-yl)thiazol-2-yl)pentanamide] are 1530 nM, 1010 nM, 34 nM and 2 nM.
With `Cc1nc(NC(=O)Cc2cccc(C(F)(F)F)c2)sc1-c1ccc2c(/C=C/c3ccccn3)n[nH]c2c1` [Compound 3, (E)-N-(4-methyl-5-(3-(2-(pyridin-2-yl)vinyl)-1H-indazol-6-yl)thiazol-2-yl)-2-(3-(trifluoromethyl)phenyl)acetamide], the GI50 with BaF3 was determined as 2310 nM; with TEL-cKIT-BaF3, 35 nM; with TEL-cKIT/T670I-BaF3, 28 nM; in the assay with TEL-VEGFR2-BaF3, 13 nM; in the assay on TEL-PDGFRα-BaF3 it was 2 nM; in the assay on TEL-PDGFRβ-BaF3, 12 nM. The same compound came in with a GI50 with TEL-FLT3-BaF3 of 0.1 nM.
In the case of `CNC(=O)c1ccccc1Sc1ccc2c(/C=C/c3ccccn3)n[nH]c2c1` [Axitinib, reference compound], the GI50 in the assay with BaF3 was 430 nM; in the assay on TEL-cKIT-BaF3, 20 nM; in the assay with TEL-cKIT/T670I-BaF3, 48 nM; in the assay with TEL-VEGFR2-BaF3, below 0.1 nM; in the assay on TEL-PDGFRα-BaF3, 1.4 nM; in the assay on TEL-PDGFRβ-BaF3, 2 nM. In addition, the GI50 in the assay on TEL-FLT3-BaF3 came out at 300 nM.
`Cc1nc(NC(=O)CN2CCN(C)CC2)sc1-c1ccc2c(-c3cccc(F)c3)n[nH]c2c1` [Compound 26, N-(5-(3-(3-fluorophenyl)-1H-indazol-6-yl)-4-methylthiazol-2-yl)-2-(4-methylpiperazin-1-yl)acetamide]: the GI50 came to 1040 nM with BaF3, 1020 nM in the assay with TEL-cKIT-BaF3, 83 nM in the assay with TEL-cKIT/T670I-BaF3 and 26 nM in the assay with TEL-FLT3-BaF3.
The like results for `Cc1nc(NC(=O)C(C)N)sc1-c1ccc2c(/C=C/c3ccccn3)n[nH]c2c1` (stereo not shown) [Compound 17, (E)-2-amino-N-(4-methyl-5-(3-(2-(pyridin-2-yl)vinyl)-1H-indazol-6-yl)thiazol-2-yl)propionamide] were, in that order, 544 nM, 460 nM, 88 nM and 4 nM.
In the case of `COc1ccc(CC(=O)Nc2nc(C)c(-c3ccc4c(/C=C/c5ccccn5)n[nH]c4c3)s2)cc1OC` [Compound 8, (E)-2-(3,4-methoxyphenyl)-N-(4-methyl-5-(3-(2-(pyridin-2-yl)vinyl)-1H-indazol-6-yl)thiazol-2-yl)acetamide], the GI50 in the assay with BaF3 came to 4870 nM; in the assay with TEL-cKIT-BaF3, 216 nM; in the assay on TEL-cKIT/T670I-BaF3, 19 nM; in the assay with TEL-VEGFR2-BaF3, 19 nM; in the assay on TEL-PDGFRα-BaF3 it was 1.2 nM; in the assay with TEL-FLT3-BaF3 it was 0.4 nM.
Regarding `Cc1nc(NC(=O)C(N)Cc2ccccc2)sc1-c1ccc2c(/C=C/c3ccccn3)n[nH]c2c1` (stereo not shown) [Compound 20, (E)-2-amino-N-(4-methyl-5-(3-(2-(pyridin-2-yl)vinyl)-1H-indazol-6-yl)thiazol-2-yl)-3-phenylpropionamide], the GI50 with BaF3 is 708 nM; with TEL-cKIT-BaF3, 361 nM; in the assay on TEL-cKIT/T670I-BaF3, 37 nM; with TEL-FLT3-BaF3 it was 3 nM.
As to `Cc1nc(NC(=O)CN2CCN(C)CC2)sc1-c1ccc2c(-c3cnc(N)nc3)n[nH]c2c1` [Compound 23, N-(5-(3-(2-aminopyrimidin-5-yl)-1H-indazol-6-yl)-4-methylthiazol-2-yl)-2-(4-methylpiperazin-1-yl)acetamide], the GI50 worked out at 1560 nM with BaF3, 133 nM in the assay with TEL-cKIT-BaF3, 13 nM with TEL-cKIT/T670I-BaF3 and 0.5 nM with TEL-FLT3-BaF3.
In the case of `Cc1nc(NC(=O)Cc2cccc(Cl)c2)sc1-c1ccc2c(/C=C/c3ccccn3)n[nH]c2c1` [Compound 10, (E)-2-(3-chlorophenyl)-N-(4-methyl-5-(3-(2-(pyridin-2-yl)vinyl)-1H-indazol-6-yl)thiazol-2-yl)acetamide], the GI50 with BaF3 came to 4100 nM; in the assay with TEL-cKIT-BaF3, 70 nM; in the assay on TEL-cKIT/T670I-BaF3 it was 37 nM; in the assay with TEL-VEGFR2-BaF3, 9.8 nM; in the assay with TEL-PDGFRα-BaF3 it was 1.3 nM; in the assay with TEL-FLT3-BaF3 it was 2 nM.
In the case of `Cc1nc(NC(=O)C(N)CC(C)C)sc1-c1ccc2c(/C=C/c3ccccn3)n[nH]c2c1` (stereo not shown) [Compound 18, (E)-2-amino-4-methyl-N-(4-methyl-5-(3-(2-(pyridin-2-yl)vinyl)-1H-indazol-6-yl)thiazol-2-yl)pentanamide], the GI50 with BaF3 turned out to be 706 nM; in the assay with TEL-cKIT-BaF3, 507 nM; in the assay on TEL-cKIT/T670I-BaF3, 37 nM; in the assay on TEL-FLT3-BaF3, 6 nM.
The like results for `Cc1nc(NC(=O)CN2CCN(C)CC2)sc1-c1ccc2c(-c3cncc(F)c3)n[nH]c2c1` [Compound 25, N-(5-(3-(5-fluoropyridin-3-yl)-1H-indazol-6-yl)-4-methylthiazole-2-yl)-2-(4-methylpiperazin-1-yl)acetamide] were, in that order, 1690 nM, 1460 nM, 241 nM and 18 nM.
On the same counts, the results for `Cc1nc(NC(=O)CN2CCN(C)CC2)sc1-c1ccc2c(-c3cnn(C)c3)n[nH]c2c1` [Compound 21, N-(4-methyl-5-(3-(1-methyl-1H-pyrazol-4-yl)-1H-indazol-6-yl)thiazol-2-yl)-2-(4-methylpiperazin-1-yl)acetamide] are above 10000 nM, 2740 nM, 984 nM and 68 nM.
Take `Cc1nc(NC(=O)C2CCN(C)CC2)sc1-c1ccc2c(/C=C/c3ccccn3)n[nH]c2c1` [Compound 16, (E)-1-methyl-N-(4-methyl-5-(3-(2-(pyridin-2-yl)vinyl)-1H-indazol-6-yl)thiazol-2-yl)piperidin-4 carboxamide]: the GI50 in the assay on BaF3 stood at 1510 nM; in the assay with TEL-cKIT-BaF3, 1350 nM; with TEL-cKIT/T670I-BaF3 it was 323 nM; in the assay with TEL-FLT3-BaF3 it was 2150 nM.
The like results for `CSCCC(N)C(=O)Nc1nc(C)c(-c2ccc3c(/C=C/c4ccccn4)n[nH]c3c2)s1` (stereo not shown) [Compound 15, (E)-2-amino-N-(4-methyl-5-(3-(2-(pyridin-2-yl)vinyl)-1H-indazol-6-yl)thiazol-2-yl)-4-(methylthio)butanamide] were, in that order, 594 nM, 961 nM, 16 nM and 2 nM.
